Converted amounts (≈) assume the structure as drawn.

Data set [1] has as its system HCT-116. Nature of the data set: Cytotoxicity against human HCT-116 cells. In kind it is functional.
In the next data set the test system is SiHa. The data set is described as follows: Cytotoxicity against human SiHa cells by MTT assay. The class given is functional, cell-based.
For another data set, the system named is A549. Nature of the data set: Cytotoxicity against human A549 cells by MTT assay. The class given is functional, cell-based.
The next data set concerns Enterococcus faecalis. Nature of the data set: Antibacterial activity against Enterococcus faecalis assessed as zone of inhibition at 5 mg/ml. The class given is functional. The note with it: read-out: IZ.
For the next data set, the system named is Proteus vulgaris. Nature of the data set: Antibacterial activity against Proteus vulgaris assessed as zone of inhibition at 5 mg/ml. The class given is functional. The note with it: read-out: IZ.
The subject of a further data set is Streptococcus mutans. Nature of the data set: Antibacterial activity against Streptococcus mutans assessed as zone of inhibition at 5 mg/ml. In kind it is functional. The following applies: read-out: IZ.
The test system of data set [2] is Staphylococcus aureus. The data set is described as follows: Antibacterial activity against Staphylococcus aureus assessed as zone of inhibition at 5 mg/ml. In kind it is functional. The following applies: read-out: IZ.
The subject of data set [3] is Bacillus subtilis. The data set is described as follows: Antibacterial activity against Bacillus subtilis assessed as zone of inhibition at 5 mg/ml. In kind it is functional. The note with it: read-out: IZ.
In data set [4] the test system is Escherichia coli. The data set is described as follows: Antibacterial activity against Escherichia coli assessed as zone of inhibition at 5 mg/ml. In kind it is functional. The note with it: read-out: IZ.
The next data set deals with Aspergillus fumigatus. The data set is described as follows: Antifungal activity against Aspergillus fumigatus assessed as zone of inhibition at 5 mg/ml. In kind it is functional. The note with it: read-out: IZ.
A further data set has as its system Aspergillus flavus. The data set is described as follows: Antifungal activity against Aspergillus flavus assessed as zone of inhibition at 5 mg/ml. The class given is functional. The following applies: read-out: IZ.
The test system of a further data set is Candida albicans. Nature of the data set: Antifungal activity against Candida albicans assessed as zone of inhibition at 5 mg/ml. In kind it is functional. The following applies: read-out: IZ.
Another data set has as its system HepG2. The data set is described as follows: Cytotoxicity against human HepG2 cells by MTT assay. In kind it is functional, cell-based.
In a further data set the test system is MCF7. The data set is described as follows: Cytotoxicity against human MCF7 cells by MTT assay. The class given is functional, cell-based.
Data set [5] has as its system HCT-116. The data set is described as follows: Cytotoxicity against human HCT-116 cells by MTT assay. In kind it is functional, cell-based.
Data set [6] deals with Gamma-aminobutyric acid receptor subunit alpha-1 (Homo sapiens, UniProt P14867). Nature of the data set: Binding affinity to GABAA alpha1 (unknown origin).
The test system of data set [7] is Mus musculus. The data set is described as follows: Anxiolytic activity in mouse assessed as time spent in light at 10 mg/kg, po. In kind it is functional.
The subject of data set [8] is Mus musculus. The data set is described as follows: Anxiolytic activity in mouse assessed as time spent in light at 1 mg/kg, po. In kind it is functional.
For data set [9], the system named is Mus musculus. Nature of the data set: Anxiolytic activity in mouse assessed as time spent in light at 3 mg/kg, po. The class given is functional.
For data set [10], the system named is Mus musculus. The data set is described as follows: Anxiolytic activity in mouse assessed as time spent in light at 30 mg/kg, po. The class given is functional.
For data set [11], the system named is Mus musculus. The data set is described as follows: Anxiolytic activity in mouse assessed as transfer number at 10 mg/kg, po. The class given is functional.
Data set [12] deals with Mus musculus. Nature of the data set: Anxiolytic activity in mouse assessed as transfer number at 1 mg/kg, po. In kind it is functional.
The test system of data set [13] is Mus musculus. Nature of the data set: Anxiolytic activity in mouse assessed as transfer number at 3 mg/kg, po. In kind it is functional.
Data set [14] has as its system Mus musculus. The data set is described as follows: Anxiolytic activity in mouse assessed as transfer number at 30 mg/kg, po. In kind it is functional.
Data set [15] deals with Staphylococcus aureus. The data set is described as follows: Antibacterial activity against Staphylococcus aureus assessed as zone of inhibition. The class given is functional.
Data set [16] deals with Escherichia coli. The data set is described as follows: Antibacterial activity against Escherichia coli assessed as zone of inhibition. The class given is functional.
The test system of data set [17] is Bacillus subtilis. The data set is described as follows: Antibacterial activity against Bacillus subtilis assessed as zone of inhibition. The class given is functional.
The subject of data set [18] is Pseudomonas aeruginosa. The data set is described as follows: Antibacterial activity against Pseudomonas aeruginosa assessed as zone of inhibition. The class given is functional.
For data set [19], the system named is Bacillus subtilis. Nature of the data set: Antibacterial activity against Bacillus subtilis. In kind it is functional.
Data set [20] deals with Staphylococcus aureus. The data set is described as follows: Antibacterial activity against Staphylococcus aureus. In kind it is functional.
The test system of data set [21] is Escherichia coli. Nature of the data set: Antibacterial activity against Escherichia coli. The class given is functional.
Data set [22] concerns Pseudomonas aeruginosa. The data set is described as follows: Antibacterial activity against Pseudomonas aeruginosa. The class given is functional.
The test system of another data set is Penicillium chrysogenum. The data set is described as follows: Antifungal activity against Penicillium chrysogenum. In kind it is functional.
A further data set deals with Fusarium oxysporum. Nature of the data set: Antifungal activity against Fusarium oxysporum. In kind it is functional.
Data set [23] has as its system Klebsiella pneumoniae. The data set is described as follows: Antibacterial activity against Klebsiella pneumoniae strain 13 assessed as bacterial inhibition at 0.5 mg/ml after 3 hrs. The class given is functional. Further details: scale not given: the % may be the effect or the level left.
A further data set relates to Geotrichum candidum. The data set is described as follows: Antifungal activity against Geotrichum candidum assessed as zone of inhibition. In kind it is functional.
Data set [24] relates to Staphylococcus epidermidis. The data set is described as follows: Antibacterial activity against Staphylococcus epidermidis assessed as zone of inhibition. In kind it is functional.
The test system of data set [25] is Klebsiella pneumoniae. Nature of the data set: Antibacterial activity against Klebsiella pneumoniae assessed as zone of inhibition. The class given is functional.
A further data set concerns Salmonella typhimurium. Nature of the data set: Antibacterial activity against Salmonella typhimurium assessed as zone of inhibition. In kind it is functional, Salmonella enterica subsp. enterica serovar Typhimurium.
Another data set relates to COLO 205. The data set is described as follows: Cytotoxicity against human COLO 205 cells by MTT assay. The class given is functional, cell-based.
The subject of data set [26] is Panel NCI-60 (60 carcinoma cell lines). The data set is described as follows: Cytotoxicity against human Panel NCI-60 (60 carcinoma cell lines). The class given is functional. Set-up: concentration or dose not given beside the values.
The nature of data set [27]: Cytotoxicity against human WI-38 cells by MTT assay. In kind it is toxicity, cell-based.
The target in data set [28] is Cyclin-dependent kinase 1 (Homo sapiens, UniProt P06493). Nature of the data set: Inhibition of CDK1 (unknown origin).
Data set [29] has as its target T1, Prostaglandin G/H synthase 1 (Ovis aries, UniProt P05979).
T1 sequence (P05979 whole entry): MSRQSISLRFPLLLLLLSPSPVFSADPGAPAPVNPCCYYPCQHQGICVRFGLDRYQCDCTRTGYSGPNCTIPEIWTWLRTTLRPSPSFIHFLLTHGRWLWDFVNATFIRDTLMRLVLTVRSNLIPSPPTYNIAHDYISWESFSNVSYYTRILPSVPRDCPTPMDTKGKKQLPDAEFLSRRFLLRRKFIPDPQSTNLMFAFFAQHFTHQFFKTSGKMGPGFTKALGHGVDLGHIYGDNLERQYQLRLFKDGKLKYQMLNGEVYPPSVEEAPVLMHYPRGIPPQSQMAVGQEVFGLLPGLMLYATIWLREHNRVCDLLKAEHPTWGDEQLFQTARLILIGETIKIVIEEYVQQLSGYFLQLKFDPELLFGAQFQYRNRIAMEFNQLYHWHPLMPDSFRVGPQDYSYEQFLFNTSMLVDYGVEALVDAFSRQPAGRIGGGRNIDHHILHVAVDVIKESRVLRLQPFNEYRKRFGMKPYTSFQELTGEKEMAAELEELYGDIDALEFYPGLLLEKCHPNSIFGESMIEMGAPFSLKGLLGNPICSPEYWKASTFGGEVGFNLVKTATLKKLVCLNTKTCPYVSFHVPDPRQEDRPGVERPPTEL
Nature of the data set: Inhibition of ovine COX-1.

A short description of data set [30]: Inhibition of soybean 15-LOX. Further details: species or system Glycine max.
Data set [31] relates to Rattus norvegicus. The data set is described as follows: Antiinflammatory activity in rat assessed as inhibition of carrageenan induced paw edema. In kind it is functional.
The test system of data set [32] is Rattus norvegicus. The data set is described as follows: Antiinflammatory activity in rat assessed as inhibition of carrageenan induced paw edema at 50 mg/kg. In kind it is functional. Set-up: scale not given: the % may be the effect or the level left.
Data set [33] concerns RAW264.7. Nature of the data set: Antiinflammatory activity in mouse RAW264.7 cells assessed as decrease in IL-6 secretion. The class given is functional. Further details: scale not given: the % may be the effect or the level left.
Data set [34] concerns RAW264.7. The data set is described as follows: Antiinflammatory activity in mouse RAW264.7 cells assessed as decrease in TNFalpha secretion. In kind it is functional. Set-up: scale not given: the % may be the effect or the level left.
The test system of a further data set is HEK293. The data set is described as follows: Cytotoxicity against HEK293 cells. In kind it is functional, Homo sapiens.

Gamma-aminobutyric acid receptor subunit alpha-1, sequence (P14867 whole entry): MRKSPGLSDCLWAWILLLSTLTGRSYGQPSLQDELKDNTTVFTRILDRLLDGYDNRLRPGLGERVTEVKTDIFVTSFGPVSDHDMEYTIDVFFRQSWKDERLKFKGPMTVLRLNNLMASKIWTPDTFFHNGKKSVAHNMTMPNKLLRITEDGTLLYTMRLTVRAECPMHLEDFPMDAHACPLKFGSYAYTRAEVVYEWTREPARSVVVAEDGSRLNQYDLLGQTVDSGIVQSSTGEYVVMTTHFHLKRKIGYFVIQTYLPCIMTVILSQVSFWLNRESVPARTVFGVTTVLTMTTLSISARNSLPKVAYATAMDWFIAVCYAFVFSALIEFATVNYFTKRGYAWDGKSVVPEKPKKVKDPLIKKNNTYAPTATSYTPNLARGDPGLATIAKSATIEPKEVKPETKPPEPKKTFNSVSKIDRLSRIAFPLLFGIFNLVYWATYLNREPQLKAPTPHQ
Cyclin-dependent kinase 1, sequence (P06493 whole entry): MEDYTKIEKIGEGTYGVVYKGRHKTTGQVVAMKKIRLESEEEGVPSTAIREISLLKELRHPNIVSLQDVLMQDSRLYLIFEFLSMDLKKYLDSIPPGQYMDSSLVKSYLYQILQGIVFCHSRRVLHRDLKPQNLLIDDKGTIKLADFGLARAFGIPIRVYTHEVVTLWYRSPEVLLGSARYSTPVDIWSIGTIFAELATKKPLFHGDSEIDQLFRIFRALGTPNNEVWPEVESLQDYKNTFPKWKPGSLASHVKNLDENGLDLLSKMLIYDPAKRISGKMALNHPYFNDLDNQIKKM

Take `COc1ccc(-c2cc3nccc(-c4ccccc4)n3n2)cc1`: the Activity with HCT-116 [1] was 26%.

Turning to `COc1ccc(-c2cc(-c3nn4cc(-c5ccncc5)cnc4c3S(=O)(=O)c3cc([N+](=O)[O-])c(OC)c([N+](=O)[O-])c3)on2)cc1`, the IC50 turned out to be 80 nM in the data set with SiHa and 54 nM with A549.

On to `Cc1cc(C)nc(NS(=O)(=O)c2ccc(/N=N/c3c(N)nc4c(/N=N/c5ccc(C(F)(F)F)cc5)c(N)nn4c3N)cc2)n1`, for which the zone of inhibition at 5000 µg/mL in the data set on Enterococcus faecalis was determined as 25 mm; with Proteus vulgaris, 40 mm; in the data set on Streptococcus mutans, 13 mm; in the data set on Staphylococcus aureus [2] it was 13 mm; with Bacillus subtilis [3], 13 mm; in the data set with Escherichia coli [4], 13 mm. In addition, the zone of inhibition at 5000 µg/mL in the data set with Aspergillus fumigatus, in the data set on Aspergillus flavus and in the data set on Candida albicans was 13 mm throughout. The IC50 came out at 3.9 µg/mL (≈ 6.23 µM) in the data set with HepG2, 4.5 µg/mL in the data set on MCF7 and 2.7 µg/mL in the data set with HCT-116 [5].

Take `O=c1c(Cc2ccccc2)c[nH]c2c(-c3ccccn3)cnn12`: the affinity in [6], expressed as Ki, was 183 nM. Besides, the Activity in the data set with Mus musculus [7] worked out at 165.4%; in the data set with Mus musculus [8], 113.9%; in the data set with Mus musculus [9], 145.2%; in the data set on Mus musculus [10] it was 164.4%; in the data set with Mus musculus [11], 23.9; with Mus musculus [12] it was 15. Moreover, the results for the Activity in the data set on Mus musculus [13] and in the data set on Mus musculus [14] were 21.3 and 28.9, respectively.

Take `COc1ccc(Nc2nn3c(-c4ccccc4)cc(-c4ccccc4)nc3c2C(N)=O)cc1`: the “inhibition zone (IZ)” value with Staphylococcus aureus [15] amounted to 9 mm; with Escherichia coli [16], 13 mm; in the data set on Bacillus subtilis [17], 12 mm; with Pseudomonas aeruginosa [18], 10 mm. Further, the MIC with Bacillus subtilis [19] came to 3.9 µg/mL (≈ 8.96 µM); with Staphylococcus aureus [20] it was 7.81 µg/mL (≈ 17.9 µM); against Escherichia coli [21] it was 3.9 µg/mL (≈ 8.96 µM); in the data set on Pseudomonas aeruginosa [22], 15.6 µg/mL (≈ 35.9 µM); in the data set with Penicillium chrysogenum, 15.6 µg/mL (≈ 35.9 µM); against Fusarium oxysporum, 7.81 µg/mL (≈ 17.9 µM).

For `CCSc1nn2c3c(c(C)nc2c1C#N)Nc1ccccc1C(=O)N3C1CCCCC1`, the Activity in the data set on Klebsiella pneumoniae [23] was found to be 100%.

Consider `Nc1nn2c(-c3ccc(S(=O)(=O)c4ccccc4)cc3)ccnc2c1/N=N/c1ccccc1Cl`, for which the “inhibition zone (IZ)” value in the data set on Escherichia coli [16] amounted to 25.7 mm; with Geotrichum candidum, 25.2 mm; in [24] it was 22.6 mm; in the data set on Klebsiella pneumoniae [25] it was 26.6 mm; with Salmonella typhimurium it was 26.2 mm.

With `COc1ccc(-c2cc(-c3nn4cc(-c5ccncc5)cnc4c3S(=O)(=O)c3cc(OC)c(OC)c(OC)c3)on2)cc1`, the IC50 amounted to 180 nM in the data set with SiHa, 10 nM in the data set on MCF7, 10 nM in the data set on A549 and 100 nM with COLO 205.

In the case of `COc1ccc(Nc2nn3c(-c4ccccc4)cc(-c4ccccc4)nc3c2C(N)=O)c(OC)c1`, the IC50 in the data set with HCT-116 [5] worked out at 6280 nM; in data set [27] it was 17700 nM; in data set [28], 161 nM. This molecule yielded an Activity in [26] of 48.5%.

In the case of `COc1ccnc(Nc2nn3c(SC)c(C#N)c(O)nc3c2C#N)c1`, the IC50 turned out to be 12600 nM in data set [29] and 18400 nM in data set [30]. Also, the ED50 with Rattus norvegicus [31] is 35 mg/kg. Moreover, the Activity in the data set with Rattus norvegicus [32] is reported as 46%; with RAW264.7 [33], 80%; in the data set on RAW264.7 [34] it was 89%.

For the molecule `COc1ccc(-c2ccnc3cc(-c4ccccc4)nn23)cc1`, the Activity with HEK293 was determined as 48%.
